The target in the test is T1, recombinant IL4I1 (Homo sapiens, UniProt Q96RQ9).
T1 construct: purchased R&D Systems 5684-AO-020
T1 sequence (Q96RQ9 22-567): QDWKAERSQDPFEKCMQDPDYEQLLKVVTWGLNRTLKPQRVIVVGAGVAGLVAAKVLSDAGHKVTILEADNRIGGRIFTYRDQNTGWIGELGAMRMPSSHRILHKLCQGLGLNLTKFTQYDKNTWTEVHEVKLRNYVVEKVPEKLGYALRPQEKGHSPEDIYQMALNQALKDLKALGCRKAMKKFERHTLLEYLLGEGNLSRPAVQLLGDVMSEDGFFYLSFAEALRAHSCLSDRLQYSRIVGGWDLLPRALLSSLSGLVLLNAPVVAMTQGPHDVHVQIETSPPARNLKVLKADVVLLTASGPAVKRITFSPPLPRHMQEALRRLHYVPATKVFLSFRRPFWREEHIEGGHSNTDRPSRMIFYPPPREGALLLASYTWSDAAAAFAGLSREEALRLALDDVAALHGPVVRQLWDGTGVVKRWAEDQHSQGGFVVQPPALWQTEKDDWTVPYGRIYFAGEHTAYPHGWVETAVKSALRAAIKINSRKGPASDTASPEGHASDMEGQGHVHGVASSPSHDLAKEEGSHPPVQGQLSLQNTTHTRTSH
The test is described as follows: IL4I1 Enzymatic Assay (Amplex Red/HRP coupled H2O2 detection). The test is classed as biochemical. Conditions: 240 min; four-hour pre-incubation with compound; 1 nM IL4I1, 1 mM each Phe/Tyr/Trp; ten-point titration; fluorescence readout; read-out: Potency EC50 (nM) (240 min). Here is the method:
Interleukin 4 inducible protein 1 (IL4I1) is an L-amino oxidase that catalyzes the oxidation of aromatic residues (Phe, Trp and Tyr): L-amino acid+H2O+O2→2-oxo acid+NH3+H2O2. Equal molar of H2O2 and the corresponding alpha-ketoacid are produced when IL4I1 and substrate are added. In this assay, the hydrogen peroxide generated by IL4I1 is then detected through a coupled reaction with Amplex Red (10-acetyl-3,7-dihydroxyphenoxazine) and […] (HRP) to produce Resorufin product that could be detected in the form of fluorescence signals. The assessment of the inhibitory effect of small molecules (EC50) on IL4I1 is measured by the effectiveness of the compounds to inhibit the production of H2O2.
Using this assay, the potency (EC50) of each compound was determined from a ten-point (1:3 serial dilution) titration curve using the following outlined procedure. To each well of a black flat-bottom Greiner (Cat #781076) 384 well-plate, 25 nL of compound (0.1% DMSO in final assay volume of 25 μL) was dispensed, followed by the addition of 12.5 μL of 1x assay buffer (50 mM Hepes 7.0 and 0.005% Tween20 (Sigma, Cat #P8341; low peroxide grade)) containing 2 nM of recombinant IL4I1 (R&D Systems, Cat #5684-AO-020). Plates were placed in an ambient temperature humidified chamber for a four-hour pre-incubation with compound. Subsequently, each reaction was initiated by the addition of 12.5 μL 1x assay buffer containing 2 mM of each aromatic amino acids (Phe/Tyr/Trp), 0.1 mM Amplex Red and 2 U/mL of HRP. The final reaction in each well of 25 μL consists of 1 nM of IL411, 1 mM of each residues (Phe, Tyr and Trp), 0.05 mM Amplex Red and 1 U/mL of HRP. It should be noted that the concentrations of Amplex Red and HRP used here are in excess such that the conversion of H2O2 to Resorufin product occurs instantaneously and non-rate limiting. Reactions were allowed to proceed for 120 minutes followed by fluorescence readout on a Spectramax with the following set parameters: 544 nm excitation/590 nm emission, 570 nm cutoff (EnVision is an alternative reader). Dose-response curves were generated by plotting percent effect (% product conversion; Y-axis) vs. Log10 compound concentrations (X-axis). EC50 values were calculated using a non-linear regression, four-parameters sigmoidal dose-response model and are shown in Table 16.
The term EC50 denotes the concentration giving half of the maximal effect. Regarding `O=c1[nH]c2ccccc2n1Cc1ccc(CN2CCCS2(=O)=O)cc1` [Example 26, 1-(4-((1,1-dioxidoisothiazolidin-2-yl)methyl)benzyl)-1,3-dihydro-2H-benzo[d]imidazol-2-one], the EC50 was 6 nM.

On to `O=c1[nH]c2ccccc2n1Cc1cccc(-c2nnco2)c1` [Example 27, 1-(3-(1,3,4-oxadiazol-2-yl)benzyl)-1,3-dihydro-2H-benzo[d]imidazol-2-one], for which the EC50 is 7 nM. Turning to `O=c1[nH]c2ccccc2n1Cc1ccc2c(c1)S(=O)(=O)CC2` [Example 28, 1-((1,1-dioxido-2,3-dihydrobenzo[b]thiophen-6-yl)methyl)-1,3-dihydro-2H-benzo[d]imidazol-2-one], the EC50 was 33 nM. For `CNC(=O)c1cccc(Cn2c(=O)[nH]c3ccccc32)c1` [Example 29, N-methyl-3-[(2-oxo-2,3-dihydro-1H-benzimidazol-1-yl)methyl]benzamide], the EC50 came to 5 nM. As for `O=c1[nH]c2ccccc2n1Cc1cc(C(F)F)cc(C(F)F)c1` [Example 30, 1-{[3,5-bis(difluoromethyl)phenyl]methyl}-1,3-dihydro-2H-benzimidazol-2-one], the EC50 turned out to be 9 nM.

Take `C[C@@H]1NC(=O)O[C@H]1c1cccc(Cn2c(=O)[nH]c3ccccc32)c1` [Example 31, 1-({3-[(4S,5S)-4-methyl-2-oxo-1,3-oxazolidin-5-yl]phenyl}methyl)-1,3-dihydro-2H-benzimidazol-2-one]: the EC50 came to 15 nM. The same measure for `CC(=O)Nc1ccc(Cn2c(=O)[nH]c3ccccc32)cc1F` [Example 32, N-{2-fluoro-4-[(2-oxo-2,3-dihydro-1H-benzimidazol-1-yl)methyl]phenyl} acetamide]: 11 nM; for `CC1NC(=O)c2cc(Cn3c(=O)[nH]c4ccccc43)ccc21` (stereo not shown) [Example 33, 1-[(1-methyl-3-oxo-2,3-dihydro-1H-isoindol-5-yl)methyl]-1,3-dihydro-2H-benzimidazol-2-one]: 15 nM. Consider `O=c1[nH]c2ccccc2n1Cc1cnc2c(c1)CCC2` [Example 34, 1-[(6,7-dihydro-5H-cyclopenta[b]pyridin-3-yl)methyl]-1,3-dihydro-2H-benzimidazol-2-one], for which the EC50 was 153 nM.

Turning to `N#CC1(c2cccc(Cn3c(=O)[nH]c4ccccc43)c2)CC1` [Example 35, 1-{3-[(2-oxo-2,3-dihydro-1H-benzimidazol-1-yl)methyl]phenyl} cyclopropane-1-carbonitrile], the EC50 was 2 nM. With `O=C1CCCN1Cc1sc(Cn2c(=O)[nH]c3ccccc32)cc1Cl` [Example 36, 1-((4-chloro-5-((2-oxopyrrolidin-1-yl)methyl)thiophen-2-yl)methyl)-1,3-dihydro-2H-benzo[d]imidazol-2-one], the concentration giving a half-maximal response (EC50) stood at 9 nM. `CN(C)C(=O)Cc1ccc(Cn2c(=O)[nH]c3ccccc32)nc1` [Example 37, N,N-dimethyl-2-(6-((2-oxo-2,3-dihydro-1H-benzo[d]imidazol-1-yl)methyl)pyridin-3-yl)acetamide]: the EC50 is 1600 nM. Regarding `CC(=O)NCc1sc(Cn2c(=O)[nH]c3ccccc32)cc1Cl` [Example 38, N-((3-chloro-5-((2-oxo-2,3-dihydro-1H-benzo[d]imidazol-1-yl)methyl)thiophen-2-yl)methyl)acetamide], the EC50 stood at 6 nM.

In the case of `CS(=O)(=O)NCc1sc(Cn2c(=O)[nH]c3ccccc32)cc1Cl` [Example 39, N-((3-chloro-5-((2-oxo-2,3-dihydro-1H-benzo[d]imidazol-1-yl)methyl)thiophen-2-yl)methyl)methanesulfonamide], the EC50 was 5 nM.

`CC(=O)NCc1sc(Cn2c(=O)[nH]c3ccccc32)cc1C` [Example 40, N-((3-methyl-5-((2-oxo-2,3-dihydro-1H-benzo[d]imidazol-1-yl)methyl)thiophen-2-yl)methyl)acetamide]: the EC50 was determined as 7 nM. The result for `O=C1CCCN1Cc1ccc(Cn2c(=O)[nH]c3ccccc32)cn1` [Example 41, 1-((6-((2-oxopyrrolidin-1-yl)methyl)pyridin-3-yl)methyl)-1,3-dihydro-2H-benzo[d]imidazol-2-one] reads 127 nM; that for `N#Cc1n[nH]c2ccc(Cn3c(=O)[nH]c4ccccc43)cc12` [Example 42, 5-((2-oxo-2,3-dihydro-1H-benzo[d]imidazol-1-yl)methyl)-1H-indazole-3-carbonitrile], 2 nM. As to `O=C1N(Cc2ccc(Cn3c(=O)[nH]c4ccccc43)cc2)CCC1(F)F` [Example 43, 1-(4-((3,3-difluoro-2-oxopyrrolidin-1-yl)methyl)benzyl)-1,3-dihydro-2H-benzo[d]imidazol-2-one], the EC50 is 10 nM. Turning to `CC(=O)NCc1ccc(Cn2c(=O)[nH]c3ccccc32)cc1Cl` [Example 44, N-(2-chloro-4-((2-oxo-2,3-dihydro-1H-benzo[d]imidazol-1-yl)methyl)benzyl)acetamide], the EC50 came to 13 nM. As to `CNC(=O)c1ccc(Cn2c(=O)[nH]c3ccccc32)s1` [Example 47, N-methyl-5-[(2-oxo-2,3-dihydro-1H-benzimidazol-1-yl)methyl]thiophene-2-carboxamide], the EC50 was 3 nM. In the case of `CNC(=O)c1cc(C)cc(Cn2c(=O)[nH]c3ccccc32)c1` [Example 48, N,3-dimethyl-5-((2-oxo-2,3-dihydro-1H-benzo[d]imidazol-1-yl)methyl)benzamide], the EC50 was 16 nM. The same measure for `CC(=O)NCc1ccc(Cn2c(=O)[nH]c3ccccc32)cc1C` [Example 49, N-(2-methyl-4-((2-oxo-2,3-dihydro-1H-benzo[d]imidazol-1-yl)methyl)benzyl)acetamide]: 10 nM; for `CC(=O)NCc1ccc(Cn2c(=O)[nH]c3ccccc32)c(C)c1` [Example 50, N-({3-methyl-4-[(2-oxo-2,3-dihydro-1H-benzimidazol-1-yl)methyl]phenyl}methyl)acetamide]: 9 nM. The result for `CC(=O)NC(C)(C)c1ccc(Cn2c(=O)[nH]c3ccccc32)cc1` [Example 51, N-(2-{4-[(2-oxo-2,3-dihydro-1H-benzimidazol-1-yl)methyl]phenyl}propan-2-yl)acetamide] reads 54 nM. For `O=c1[nH]c2ccccc2n1Cc1ccc2c(c1)CCN2` [Example 52, 1-(indolin-5-ylmethyl)-1,3-dihydro-2H-benzo[d]imidazol-2-one], the EC50 came to 18 nM. Turning to `Cn1cnnc1Cc1ccc(Cn2c(=O)[nH]c3ccccc32)cc1` [Example 53, 1-(4-((4-methyl-4H-1,2,4-triazol-3-yl)methyl)benzyl)-1,3-dihydro-2H-benzo[d]imidazol-2-one], the EC50 was found to be 12 nM. For `Cc1cc(Cn2c(=O)[nH]c3ccccc32)ccc1Cc1nnco1` [Example 54, 1-(4-((1,3,4-oxadiazol-2-yl)methyl)-3-methylbenzyl)-1,3-dihydro-2H-benzo[d]imidazol-2-one], the EC50 turned out to be 7 nM. The result for `O=c1[nH]c2ccccc2n1Cc1ccc2c(c1)CCC2` [Example 55, 1-((2,3-dihydro-1H-inden-5-yl)methyl)-1,3-dihydro-2H-benzo[d]imidazol-2-one] reads 0.8 nM. On to `O=c1[nH]c2ccccc2n1Cc1cccnc1` [Example 56, 1-(pyridin-3-ylmethyl)-1,3-dihydro-2H-benzo[d]imidazol-2-one], for which the EC50 was found to be 2480 nM. `CC(C)C1CC(Cn2c(=O)[nH]c3ccccc32)C1` (stereo not shown) [Example 57, 1-{[3-(propan-2-yl)cyclobutyl]methyl}-1,3-dihydro-2H-benzimidazol-2-one]: the EC50 worked out at 3040 nM.

Turning to `O=c1[nH]c2ccccc2n1CCC1CCCCC1` [Example 58, 1-(2-cyclohexylethyl)-1,3-dihydro-2H-benzimidazol-2-one], the EC50 amounted to 936 nM.
